Measured values reported in BindingDB's records for doi:10.1016/s0960-894x(99)00397-2 (Chungnam National University, 1999).

What follows are molecules tested against DNA topoisomerase 1 (Bos taurus) (assay: Compound was evaluated for the inhibition of DNA topoisomerase-1 of calf thymus).

| Compound | IC50 |
| --- | --- |
| CCCCCCC(O)c1cc(OC)c2c(c1OC)C(=O)C=CC2=O (stereo not given) [6-(1-Hydroxy-heptyl)-5,8-dimethoxy-[1,4]naphthoquinone] | 30.1 µM |
| COc1cc(C(C)O)c(OC)c2c1C(=O)C=CC2=O (stereo not given) [6-(1-Hydroxy-ethyl)-5,8-dimethoxy-[1,4]naphthoquinone] | 111 µM |
| CCCCCC(O)c1cc(OC)c2c(c1OC)C(=O)C=CC2=O (stereo not given) [6-(1-Hydroxy-hexyl)-5,8-dimethoxy-[1,4]naphthoquinone] | 39 µM |

Results, then the molecule that gave them:

| IC50 | Compound |
| --- | --- |
| 43.9 µM | CCCCCCCC(O)c1cc(OC)c2c(c1OC)C(=O)C=CC2=O (stereo not given) [6-(1-Hydroxy-octyl)-5,8-dimethoxy-[1,4]naphthoquinone] |
| 122 µM | CCC(O)c1cc(OC)c2c(c1OC)C(=O)C=CC2=O (stereo not given) [6-(1-Hydroxy-propyl)-5,8-dimethoxy-[1,4]naphthoquinone] |
